Key:
[1] = In vitro EDTA challenge study; assay type: physicochemical
Protocol: In vitro EDTA challenge study. In vitro EDTA challenge study was carried out by adding 10 µL of each 89Zr-labeled complex (70 μCi, 2.59 MBq) to 500 µL of EDTA (10 mM, 50 mM and 100 mM: pH 5 and pH 7) with a 1:100, 1:500, and 1:1000 ratio of ligand/EDTA. The solutions (n=4) were incubated at 37 °C for 7 days in a thermomixer. Samples were analyzed at 30 min, 1 h, 3 h, 6 h, 1 d, 3 d, 5 d and 7 d post administration to EDTA by radio-TLC using Varian ITLC-SA strips and 0.1 M EDTA (pH 5) as the mobile phase and gamma counting using an energy window of 500-1500 keV and standard protocols .

[2] = In vitro metal competition study; assay type: physicochemical; settings: PBS pH 7.4, 37 C
Protocol: In vitro Metal Competition study. To a solution of metal cations [iron (III) chloride, cobalt (II) chloride, zinc (II) chloride, copper (II) chloride, magnesium (II) chloride, gallium (III) nitrate, gadolinium (III) chloride] (1 mM, 200 µL), was added 89Zr-labeled complex (0.1 mM, 10 µL, 80 μCi, 2.96 MBq) in PBS, pH 7.4. The resulting solutions (n = 3) were incubated at 37 °C for 7 days in a thermomixer. Dissociation of 89Zr from 89Zr-complexes was monitored by radio-TLC at 2 h, 1 d, 4 d and 7 d time point. All studies were performed in triplicate.

[3] = In vitro serum stability (radio-ITLC); assay type: in vitro ADME; settings: 37 C, after 7 days
Protocol: In vitro serum stability. In vitro serum stability was carried out by adding 10 µL of each 89Zr-labeled complex (70 μCi, 2.59 MBq) to 500 µL of human serum. The solutions (n=4) were incubated at 37 °C for 7 days and were analyzed daily for 1 week by radio -TLC using Varian ITLC-SA strips and 0.1 M EDTA (pH 5) as the mobile phase and gamma counting using an energy window of 500-1500 keV and standard protocols . Serum samples were also analyzed after 7 days by size exclusion chromatography (SEC) using a Superdex 200 10/300 GLTM column (GE Healthcare Life Sciences, Piscataway, NJ) and phosphate buffered saline (PBS) as eluent with a flow rate of 0.5 mL/min.
Figure S30. Radio-ITLC of 89Zr-DOTA solution in human serum at 37 °C after 0 h (a) and 7 days (b). […]

[4] = Biodistribution studies; assay type: in vivo, female NIH Swiss mice; settings: mice, over the 72 h experiment
Protocol: Biodistribution Studies. Biodistribution studies were conducted using a modified literature procedure. 7 Briefly, female NIH Swiss mice (6-8 wk old, n=6) were injected with each 89Zr-labeled complex (0.55 MBq (15 μCi)/mouse) via the tail vein, and sacrificed at 2, 4, 24, 48, 72 h post-injection. Organs and tissues of interest were excised, weighted, and counted on a Perkin Elmer 2480 Wizard® gamma counter (Waltham, MA). The percent injected dose per gram (%ID/g) and percent injected dose per organ (%ID/organ) were calculated by comparison to a weighed, counted standard for each group (Tables S9 – S12).
Statistical Methods. All of the data are presented as mean±SD or mean (95% Confidence Interval). For statistical classification a student’s t test (two-tailed, unpaired) was performed using GraphPad Prism (San Diego, CA). Any p<0.05 was considered significant.

## NC(=O)CN1CCN(CC(N)=O)CCN(CC(N)=O)CCN(CC(N)=O)CC1.[89Zr+4] [89Zr-DOTAM]
[1]; EDTA 100-fold, pH 5.0, 37 C, 1 h
  % Intact of 89Zr-complexes: 97.7 ± 0.2%
[1]; EDTA 100-fold, pH 5.0, 37 C, 1 d
  % Intact of 89Zr-complexes: 84.4 ± 0.9%
[1]; EDTA 100-fold, pH 5.0, 37 C, 3 d
  % Intact of 89Zr-complexes: 67.6 ± 0.9%
[1]; EDTA 100-fold, pH 5.0, 37 C, 5 d
  % Intact of 89Zr-complexes: 49.6 ± 0.6%
[1]; EDTA 100-fold, pH 5.0, 37 C, 7 d
  % Intact of 89Zr-complexes: 42.3 ± 1.2%
[1]; EDTA 100-fold, pH 7.0, 37 C, 1 h
  % Intact of 89Zr-complexes: 99.0 ± 0.2%
[1]; EDTA 100-fold, pH 7.0, 37 C, 1 d
  % Intact of 89Zr-complexes: 90.9 ± 0.8%
[1]; EDTA 100-fold, pH 7.0, 37 C, 3 d
  % Intact of 89Zr-complexes: 86.1 ± 1.1%
[1]; EDTA 100-fold, pH 7.0, 37 C, 5 d
  % Intact of 89Zr-complexes: 75.7 ± 0.8%
[1]; EDTA 100-fold, pH 7.0, 37 C, 7 d
  % Intact of 89Zr-complexes: 72.1 ± 2.0%
[1]; EDTA 500-fold, pH 5.0, 37 C, 1 h
  % Intact of 89Zr-complexes: 97.5 ± 0.6%
[1]; EDTA 500-fold, pH 5.0, 37 C, 1 d
  % Intact of 89Zr-complexes: 80.0 ± 1.2%
[1]; EDTA 500-fold, pH 5.0, 37 C, 3 d
  % Intact of 89Zr-complexes: 47.0 ± 0.4%
[1]; EDTA 500-fold, pH 5.0, 37 C, 5 d
  % Intact of 89Zr-complexes: 22.8 ± 1.8%
[1]; EDTA 500-fold, pH 5.0, 37 C, 7 d
  % Intact of 89Zr-complexes: 12.2 ± 1.5%
[1]; EDTA 500-fold, pH 7.0, 37 C, 1 h
  % Intact of 89Zr-complexes: 98.5 ± 0.2%
[1]; EDTA 500-fold, pH 7.0, 37 C, 1 d
  % Intact of 89Zr-complexes: 90.8 ± 0.9%
[1]; EDTA 500-fold, pH 7.0, 37 C, 3 d
  % Intact of 89Zr-complexes: 77.5 ± 1.4%
[1]; EDTA 500-fold, pH 7.0, 37 C, 5 d
  % Intact of 89Zr-complexes: 66.6 ± 0.5%
[1]; EDTA 500-fold, pH 7.0, 37 C, 7 d
  % Intact of 89Zr-complexes: 58.1 ± 1.4%
[1]; EDTA 1000-fold, pH 5.0, 37 C, 1 h
  % Intact of 89Zr-complexes: 96.5 ± 0.2%
[1]; EDTA 1000-fold, pH 5.0, 37 C, 1 d
  % Intact of 89Zr-complexes: 77.0 ± 1.3%
[1]; EDTA 1000-fold, pH 5.0, 37 C, 3 d
  % Intact of 89Zr-complexes: 38.3 ± 1.5%
[1]; EDTA 1000-fold, pH 5.0, 37 C, 5 d
  % Intact of 89Zr-complexes: 13.4 ± 1.6%
[1]; EDTA 1000-fold, pH 5.0, 37 C, 7 d
  % Intact of 89Zr-complexes: 5.7 ± 1.0%
[1]; EDTA 1000-fold, pH 7.0, 37 C, 1 h
  % Intact of 89Zr-complexes: 98.3 ± 0.1%
[1]; EDTA 1000-fold, pH 7.0, 37 C, 1 d
  % Intact of 89Zr-complexes: 88.6 ± 0.4%
[1]; EDTA 1000-fold, pH 7.0, 37 C, 3 d
  % Intact of 89Zr-complexes: 69.9 ± 1.8%
[1]; EDTA 1000-fold, pH 7.0, 37 C, 5 d
  % Intact of 89Zr-complexes: 58.2 ± 1.3%
[1]; EDTA 1000-fold, pH 7.0, 37 C, 7 d
  % Intact of 89Zr-complexes: 47.4 ± 0.9%
[2]; Co2+, 2 h
  % Intact of 89Zr-complexes: 92.6 ± 0.5%
[2]; Co2+, 1 d
  % Intact of 89Zr-complexes: 88.6 ± 0.3%
[2]; Co2+, 4 d
  % Intact of 89Zr-complexes: 85.8 ± 0.4%
[2]; Co2+, 7 d
  % Intact of 89Zr-complexes: 80.9 ± 1.0%
[2]; Cu2+, 2 h
  % Intact of 89Zr-complexes: 91.9 ± 0.1%
[2]; Cu2+, 1 d
  % Intact of 89Zr-complexes: 86.7 ± 0.7%
[2]; Cu2+, 4 d
  % Intact of 89Zr-complexes: 80.5 ± 0.8%
[2]; Cu2+, 7 d
  % Intact of 89Zr-complexes: 74.1 ± 1.2%
[2]; Fe3+, 2 h
  % Intact of 89Zr-complexes: 92.4 ± 0.5%
[2]; Fe3+, 1 d
  % Intact of 89Zr-complexes: 89.8 ± 0.2%
[2]; Fe3+, 4 d
  % Intact of 89Zr-complexes: 87.2 ± 0.8%
[2]; Fe3+, 7 d
  % Intact of 89Zr-complexes: 85.8 ± 0.8%
[2]; Ga3+, 2 h
  % Intact of 89Zr-complexes: 92.9 ± 0.7%
[2]; Ga3+, 1 d
  % Intact of 89Zr-complexes: 87.9 ± 0.7%
[2]; Ga3+, 4 d
  % Intact of 89Zr-complexes: 86.6 ± 2.3%
[2]; Ga3+, 7 d
  % Intact of 89Zr-complexes: 80.3 ± 0.4%
[2]; Gd3+, 2 h
  % Intact of 89Zr-complexes: 93.9 ± 0.3%
[2]; Gd3+, 1 d
  % Intact of 89Zr-complexes: 90.6 ± 0.3%
[2]; Gd3+, 4 d
  % Intact of 89Zr-complexes: 88.8 ± 0.6%
[2]; Gd3+, 7 d
  % Intact of 89Zr-complexes: 86.3 ± 0.1%
[2]; Mg2+, 2 h
  % Intact of 89Zr-complexes: 93.6 ± 1.0%
[2]; Mg2+, 1 d
  % Intact of 89Zr-complexes: 90.5 ± 0.5%
[2]; Mg2+, 4 d
  % Intact of 89Zr-complexes: 87.4 ± 0.9%
[2]; Mg2+, 7 d
  % Intact of 89Zr-complexes: 93.1 ± 0.8%
[2]; Zn2+, 2 h
  % Intact of 89Zr-complexes: 94.1 ± 0.5%
[2]; Zn2+, 1 d
  % Intact of 89Zr-complexes: 89.4 ± 1.9%
[2]; Zn2+, 4 d
  % Intact of 89Zr-complexes: 71.9 ± 1.7%
[2]; Zn2+, 7 d
  % Intact of 89Zr-complexes: 57.0 ± 1.8%
[3]
  Radio-ITLC peak of complex in human serum: 99.2%
[4]
  Radioactivity retention in liver and spleen tissues: retained elevated levels of radioactivity

Source: PMC5363373, “Zirconium tetraazamacrocycle complexes display extraordinary stability and provide a new strategy for zirconium-89-based radiopharmaceutical development” (Chemical Science, 2016)
